# Experimental data published in ChEMBL document CHEMBL2163212, “Antivirals targeting influenza A virus” (J Med Chem, 2012).
# Tested on: Influenza A virus
# Experiment: Antiviral activity against Influenza A virus assessed as inhibition of cap dependent viral transcription
# Type: functional, organism-based
row,Structure (SMILES),IC50 [µM]
1,O=C(O)/C(O)=C/C(=O)C1(Cc2ccc(Cl)cc2)CCCN(Cc2ccccc2)C1 (configuration not stated),1
2,O=C(O)/C(O)=C/C(=O)C1(Cc2ccc(Cl)cc2)CCN(Cc2ccccc2)CC1,1
